The record followed here is patent publication US8802678B2, “Carbonylated (aza) cyclohexanes as dopamine D3 receptor ligands” (Bioprojet, priority 2006, dated 2014).

One may read the melting point as the temperature, or range, at which the solid turns liquid. Regarding `CCOCC(=O)N[C@H]1CC[C@H](CCN2CCN(c3cc(C(F)(F)F)cc(C(F)(F)F)c3)CC2)CC1` [Example 108, N-(4-{2-[4-(3,5-Bistrifluoro-methylphenyl)piperazin-1-yl]ethyl}cyclohexyl)-2-ethoxyacetamide], the melting point came out at 135 °C.

In the case of `CCCc1cccc(N2CCN(CCC3CCN(CC(C)=O)CC3)CC2)c1.Cl.Cl`, the melting point was 256 °C. With `Cc1cccc(N2CCN(CC[C@H]3CC[C@H](NC(=O)C4=CCCC4)CC3)CC2)c1` [Example 380, Cyclopent-1-enecarboxylic acid {4-[2-(4-m-tolylpiperazin-1-yl)ethyl]cyclohexyl} amide], the melting point turned out to be 188 °C. Consider `CC(=O)CN1CCC(CCN2CCN(c3cc(Cl)cc(Cl)c3)CC2)CC1` [Example 311, 1-(4-{2-[4-(3,5-Dichlorophenyl)-piperazin-1-yl]ethyl}piperidin-1-yl)propan-2-one], for which the melting point stood at 126 °C. The molecule `N#CCCCC(=O)N[C@H]1CC[C@H](CCN2CCN(c3cc(Cl)c(Cl)cc3Cl)CC2)CC1` [Example 764, 4-Cyano-N-(4-{2-[4-(2,4,5-trichlorophenyl)piperazin-1-yl]ethyl}cyclohexyl)butanamide] showed a melting point of 179 °C. In turn, `Cc1cccc(N2CCN(CC[C@H]3CC[C@H](NC(=O)CCCC#N)CC3)CC2)c1` [Example 234, 4-Cyano-N-{4-[2-(4-m-tolylpiperazin-1-yl)ethyl]cyclohexyl}butanamide] registered a melting point of 150 °C.

`CC(=O)CN1CCC(CCN2CCN(c3cccc(-c4ccccc4)c3)CC2)CC1.Cl.Cl` had a melting point of 235 °C. As to `COC(C)(C)C(=O)N[C@H]1CC[C@H](CCN2CCN(c3cccc(C(F)(F)F)c3)CC2)CC1` [Example 77, 2-Methoxy-2-methyl-N-(4-{2-[4-(3-trifluoromethylphenyl)-piperazin-1-yl]ethyl}cyclohexyl)-propanamide], the melting point was 105 °C. Take `COCCCC(=O)N[C@H]1CC[C@H](CCN2CCN(c3cccc(C)c3)CC2)CC1` [Example 675, 4-Methoxy-N-{4-[2-(4-m-tolylpiperazin-1-yl)ethyl]cyclohexyl}butanamide]: the melting point was 148 °C. As to `COc1c(Cl)cccc1N1CCN(CC[C@H]2CC[C@H](NC(=O)CCCC#N)CC2)CC1` [Example 449, N-(4-{2-[4-(3-Chloro-2-methoxyphenyl)piperazin-1-yl]ethyl}cyclohexyl)-4-cyanobutanamide], the melting point came to 118 °C. The value for `N#CCC(=O)N[C@H]1CC[C@H](CCN2CCN(c3cccc(-c4ncco4)c3)CC2)CC1` [Example 530, 2-Cyano-N-(4-{2-[4-(3-oxazol-2-ylphenyl)piperazin-1-yl]ethyl}cyclohexyl)acetamide] was 185 °C. Consider `CCOCC(=O)N[C@H]1CC[C@H](CCN2CC=C(c3ccc(Cl)cc3)CC2)CC1`, for which the melting point stood at 149 °C. In the case of `CC(=O)CN1CCC(CCN2CCN(c3cccc(C(O)C(C)C)c3)CC2)CC1` (centres unmarked) [Example 608, 1-[4-(2-{4-[3-(1-Hydroxy-2-methylpropyl)phenyl]piperazin-1-yl}ethyl)piperidin-1-yl]propan-2-one] it was 78 °C; in that of `N#CCC(=O)N[C@H]1CC[C@H](CCN2CCN(c3cc(C(F)(F)F)c(Cl)cc3Cl)CC2)CC1` [Example 423, 2-Cyano-N-(4-{2-[4-(2,4-dichloro-5-trifluoromethylphenyl)piperazin-1-yl]ethyl}cyclohexyl)acetamide], 193 °C.

Consider `Cl.Cl.O=C(CN1CCC(CCN2CCN(c3cccc(C(F)(F)F)c3)CC2)CC1)c1ccc(F)cc1`, for which the melting point turned out to be 265 °C. The value for `CCc1cccc(N2CCN(CC[C@H]3CC[C@H](NC(=O)CC(F)(F)F)CC3)CC2)c1` [Example 250, N-(4-{2-[4-(3-Ethylphenyl)-piperazin-1-yl]ethyl}cyclohexyl)-3,3,3-trifluoropropanamide] was 154 °C; that for `CCc1cccc(N2CCN(CC[C@H]3CC[C@H](NC(=O)CCC#N)CC3)CC2)c1` [Example 251, 3-Cyano-N-(4-{2-[4-(3-ethylphenyl)piperazin-1-yl]ethyl}cyclohexyl)propanamide] was 143 °C. In the case of `N#CCCCC(=O)N[C@H]1CC[C@H](CCN2CCN(c3cc(C#N)ccc3Cl)CC2)CC1` [Example 601, N-(4-{2-[4-(2-Chloro-5-cyanophenyl)piperazin-1-yl]ethyl}cyclohexyl)-4-cyanobutanamide] it was 206 °C; in that of `O=C(N[C@H]1CC[C@H](CCN2CCN(c3cccc(C(F)(F)F)c3)CC2)CC1)C1=CCCCO1` [Example 562, 5,6-Dihydro-4H-pyran-2-carboxylic acid (4-{2-[4-(3-trifluoromethylphenyl)piperazin-1-yl]ethyl}cyclohexyl) amide], 142 °C.

Turning to `N#CCC(=O)N[C@H]1CC[C@H](CCN2CCN(c3cc(C(F)(F)F)ccc3Cl)CC2)CC1` [Example 189, N-(4-{2-[4-(2-Chloro-5-trifluoromethylphenyl)piperazin-1-yl]ethyl}cyclohexyl)-2-cyanoacetamide], the melting point fell in the range of 203 to 204 °C. The value for `N#CCC(=O)N[C@H]1CC[C@H](CCN2CCN(c3cc(Cl)ccc3Cl)CC2)CC1` [Example 228, 2-Cyano-N-(4-{2-[4-(2,5-dichlorophenyl)piperazin-1-yl]ethyl}cyclohexyl)acetamide] was 182 to 184 °C; that for `CC(F)(F)c1cccc(N2CCN(CC[C@H]3CC[C@H](NC(=O)CC#N)CC3)CC2)c1` [Example 281, 2-Cyano-N-[4-(2-{4-[3-(1,1-difluoroethyl)phenyl]piperazin-1-yl}ethyl)cyclohexyl]acetamide trans/cis 90/10] was 150 °C; that for `CC(=O)CN1CCC(CCN2CCN(c3ccc(C)c(C(F)(F)F)c3)CC2)CC1.Cl.Cl` was 325 °C.

`CC(=O)N1CCC(C(=O)N[C@H]2CC[C@H](CCN3CCN(c4cccc(C(F)(F)F)c4)CC3)CC2)CC1` [Example 153, 1-Acetylpiperidine-4-carboxylic acid (4-{2-[4-(3-trifluoro-methylphenyl)piperazin-1-yl]ethyl}cyclohexyl)amide] returned a melting point of 173 °C. The value for `O=C(N[C@H]1CC[C@H](CCN2CC=C(c3ccccc3)CC2)CC1)C1=CCCC1` was 202 °C; that for `Cc1cc(C)cc(N2CCN(CC[C@H]3CC[C@H](NC(=O)CC#N)CC3)CC2)c1` [Example 148, 2-Cyano-N-(4-{2-[4-(3,5-dimethylphenyl)piperazin-1-yl]ethyl}cyclohexyl)acetamide] was 192 °C; that for `CC(=O)CN1CCC(CCN2CCN(c3cccc(C(F)F)c3)CC2)CC1.Cl.Cl` was 265 °C. For the molecule `N#CCC(=O)N[C@H]1CC[C@H](CCN2CCN(c3cccc(-c4ccccc4)c3)CC2)CC1` [Example 276, N-{4-[2-(4-Biphenyl-3-yl-piperazin-1-yl)ethyl]cyclohexyl}-2-cyanoacetamide], the melting point stood at 157 °C. For the molecule `CCOCC(=O)N[C@H]1CC[C@H](CCN2CCN(c3cccc(C(F)(F)F)c3C#N)CC2)CC1` [Example 102, N-(4-{2-[4-(2-Cyano-3-trifluoromethylphenyl)piperazin-1-yl]ethyl}cyclohexyl)-2-ethoxyacetamide], the melting point was determined as 173 °C.
